# In publication PMC9268515, “UGT1A1 and UGT1A9 Are Responsible for Phase II Metabolism of Tectorigenin and Irigenin In Vitro” (Molecules, 2022):
# What was measured:
# [1] = test system: pooled human liver microsomes (HLMs); test: Glucuronidation kinetics of tectorigenin and irigenin in HLMs; type: in vitro ADME; conditions: tectorigenin glucuronidation in HLMs, metabolite M
# Method: To obtain suitable incubation conditions, we first evaluated the linearity of metabolite formation at different times (10–60 min), the UDPGA concentrations (0.5–5 mM), and the microsome protein concentrations in HLMs (0.2–2 mg/mL). The final incubation medium used in the experiment contained MgCl2 (10 mM), microsomes (0.5 mg/mL), 1,4-lactone monohydrate (5 mM), alamethicin ([…]), UDPGA (1 mM), and different concentrations of tectorigenin or irigenin (1–300 μM) in Tris-HCl buffer (50 mM, pH 7.4). The mixture was incubated at 37 °C for 30 min; then, the reaction was stopped by adding ice-cold methanol. After the mixtures were centrifuged (17,000 rpm, 10 min), and the supernatant was analyzed by HPLC. Michaelis–Menten parameters (Vmax and Km) were determined on the basis of the nonlinear regression of the plot of the substrate concentration vs. rate of metabolite formation.
# (§1) For both HLMs and UGTs, metabolic kinetic analysis was performed by fitting the data to the Michaelis-Menten model. The Km and Vmax of enzymes were calculated as follows:(3) V=Vmax×[S]/Km+[S], where [S] is the substrate concentration. All results were shown as the mean ± standard error (SE). Differences among different groups were compared using one-way analysis of variance. A p-value < 0.05 was considered statistically significant.
# UGT1A9 = target: T1, UGT1A9 (Homo sapiens, UniProt O60656); test: Recombinant UGT reaction screening and enzyme kinetics, UGT1A9; type: in vitro ADME; conditions: recombinant UGT1A9 screening
# T1 construct: purchased BD Biosciences (Woburn, MA, USA)
# T1 sequence (O60656 26-530): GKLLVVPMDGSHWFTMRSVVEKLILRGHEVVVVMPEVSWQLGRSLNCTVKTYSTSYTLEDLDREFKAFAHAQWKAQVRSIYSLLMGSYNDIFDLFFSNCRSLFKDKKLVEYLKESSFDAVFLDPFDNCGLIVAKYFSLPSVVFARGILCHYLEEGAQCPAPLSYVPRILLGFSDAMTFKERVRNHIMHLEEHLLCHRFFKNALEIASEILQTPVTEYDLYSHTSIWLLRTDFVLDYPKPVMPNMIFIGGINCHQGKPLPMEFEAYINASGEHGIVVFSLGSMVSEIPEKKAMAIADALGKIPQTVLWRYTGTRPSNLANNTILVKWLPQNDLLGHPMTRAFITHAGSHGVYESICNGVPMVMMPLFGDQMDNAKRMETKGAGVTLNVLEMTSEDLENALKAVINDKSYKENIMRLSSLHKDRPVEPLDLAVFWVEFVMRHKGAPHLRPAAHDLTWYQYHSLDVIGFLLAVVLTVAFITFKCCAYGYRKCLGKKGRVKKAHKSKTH
# Method: (§2) UGT reaction screening of tectorigenin and irigenin was conducted using nine commercially available human UGTs (UGT1A1/1A3/1A4/1A6/1A9/2B4/2B7/2B15/2B17). Furthermore, we studied the enzymatic kinetic characteristics of tectorigenin and irigenin using UGT1A1 and UGT1A9. Six concentrations of tectorigenin and irigenin (1, 3, 10, 30, 100, and 300 μM) were incubated in triplicate in order to obtain the enzyme kinetic characteristics of tectorigenin and irigenin glucuronide.
# as §1
# UGT1A4 = target: T2, UGT1A4 (Homo sapiens, UniProt P22310); test: Recombinant UGT reaction screening, UGT1A4; type: in vitro ADME
# T2 construct: purchased BD Biosciences (Woburn, MA, USA)
# T2 sequence (P22310 29-534): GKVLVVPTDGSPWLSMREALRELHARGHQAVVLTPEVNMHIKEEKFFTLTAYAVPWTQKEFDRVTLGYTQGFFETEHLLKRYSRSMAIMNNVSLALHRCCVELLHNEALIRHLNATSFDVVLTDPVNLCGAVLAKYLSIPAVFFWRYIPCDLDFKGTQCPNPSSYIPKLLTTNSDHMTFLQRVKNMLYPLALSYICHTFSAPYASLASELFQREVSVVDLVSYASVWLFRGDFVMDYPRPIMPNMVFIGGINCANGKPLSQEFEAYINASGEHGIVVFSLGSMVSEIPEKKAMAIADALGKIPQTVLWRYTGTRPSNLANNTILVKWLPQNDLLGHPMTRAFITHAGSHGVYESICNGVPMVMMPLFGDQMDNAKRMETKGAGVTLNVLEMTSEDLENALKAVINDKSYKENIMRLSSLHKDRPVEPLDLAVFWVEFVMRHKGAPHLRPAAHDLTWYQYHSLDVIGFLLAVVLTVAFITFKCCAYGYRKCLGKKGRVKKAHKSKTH
# Method: as §2
# UGT2B17 = target: T3, UGT2B17 (Homo sapiens, UniProt O75795); test: Recombinant UGT reaction screening, UGT2B17; type: in vitro ADME
# T3 construct: purchased BD Biosciences (Woburn, MA, USA)
# T3 sequence (O75795 24-530): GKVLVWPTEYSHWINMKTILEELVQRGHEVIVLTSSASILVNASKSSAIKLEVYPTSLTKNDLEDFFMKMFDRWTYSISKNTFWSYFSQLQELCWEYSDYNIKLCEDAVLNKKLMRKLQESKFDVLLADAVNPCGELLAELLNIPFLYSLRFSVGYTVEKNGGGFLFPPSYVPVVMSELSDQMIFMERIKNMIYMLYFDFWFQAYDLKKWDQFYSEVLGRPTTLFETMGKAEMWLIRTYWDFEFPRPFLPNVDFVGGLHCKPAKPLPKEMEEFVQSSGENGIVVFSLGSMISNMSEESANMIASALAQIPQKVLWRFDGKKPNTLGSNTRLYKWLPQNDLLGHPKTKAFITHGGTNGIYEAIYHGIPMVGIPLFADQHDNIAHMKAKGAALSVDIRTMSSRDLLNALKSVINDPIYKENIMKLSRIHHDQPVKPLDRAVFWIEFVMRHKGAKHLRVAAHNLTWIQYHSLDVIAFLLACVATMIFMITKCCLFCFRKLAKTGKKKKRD
# Method: as §2
# [2] = Stability experiment under different storage conditions; type: physicochemical; conditions: autosampler 12 h at 4 °C
# Method: In the stability experiment, we evaluated the stability of tectorigenin and irigenin, as well as their metabolites, under different conditions. […] Metabolites (M, M1, and M2) were stable in the inactivated metabolic system for 2 h (held constant at approximately 25 °C) and after storage for 7 days (−80 °C), as well as in the pretreated samples placed in the autosampler for 12 h at 4 °C.
structure (smiles),measurement,setting,value
"COc1c(O)cc2occ(-c3ccc(O)cc3)c(=O)c2c1O [Tectorigenin, 5,7,4′-trihydroxyl-6-methoxyl isoflavone]",Vmax for M formation,[1],5.87 ± 0.25 nmol/min/mg
same,Km,[1]; read-out: Km for M formation,32.8 ± 4.79 µM
same,Activity in glucuronidation of tectorigenin,UGT1A9,highest activity
same,Activity in glucuronidation of tectorigenin,UGT1A4,some activity
same,Activity in glucuronidation of tectorigenin,UGT2B17,none
same,Stability in pretreated samples in the autosampler,[2],stable
same,RE and RSD values in pretreated samples in the autosampler,[2]; printed as below ±5%,< 5%
